According to patent US20210085630A1, “PHARMACEUTICAL COMPOSITION AND USE THEREOF IN PREPARING DRUG FOR TREATING TUMOR MULTI-DRUG RESISTANCE” (SICHUAN JIUZHANG BIOLOGICAL SCIENCE AND TECHNOLOGY CO., LTD., priority 2018, published 2021):

What was measured:
[1] = tested on: drug-resistant A549 lung cancer cell lines; assay: Reversal of gemcitabine resistance in drug-resistant A549 cells (MTT); format: cell-based, human; settings: test drug 30 μg/ml; for Reversal index: IC50 before reversal/IC50 after reversal, drug-resistant A549
Protocol: The culture and experimental methods of cells were the same as above. In the experiment, there are following groups: drug-resistant cell negative group, drug-resistant cells+test drug group 1 (30 μg/ml), drug-resistant cells+test drug group 2 (30 μg/ml), drug-resistant cells+test drug group 3 (30 μg/ml), drug-resistant cells+test drug group 4 (30 μg/ml), drug-resistant cells+test drug group 5 (30 μg/ml), drug-resistant cells+test drug group 6 (30 μg/ml). Each test drug group was respectively added with different concentrations of gemcitabine, each concentration including 3 replicate wells, and the OD value of each well was measured, to observe whether the cytotoxicity was shown. Each test drug and gemcitabine were respectively used to act on drug resistant cells, so as to compare with the effects of gemcitabine administrated alone on drug-resistant cells, and the IC50 value of gemcitabine against drug-resistant cell lines was calculated, as well as the IC50 value of each test drug after reversing drug-resistant cell lines. Reversal index=IC50 value before reversal/IC50 value after reversal.

[2] = tested on: CD4+T and CD8+T lymphocytes; assay: Number of CD4+T and CD8+T cells in Opdivo-resistant B16 melanoma mice; format: in vivo; settings: drug-resistant (Opdivo) B16 melanoma mice, average of 6 high power fields
Protocol: The number of CD4+T and CD8+T lymphocytes was analyzed by immunofluorescence staining, and the average number of CD4+T and CD8+T cells infiltrated in 6 high power fields was counted.

[3] = tested on: Opdivo-resistant Lewis lung cancer; assay: Antitumor effect (tumor volume, weight, inhibition rate) in Opdivo-resistant Lewis lung cancer mice; format: in vivo; settings: for Tumor volume (cm^3): 30 mg/kg i.p. once a day, + Opdivo groups: test drug 5 days, then Opdivo 30 mg/kg every other day; for Tumor inhibition rate (%) / Tumor weight: 30 mg/kg i.p., + Opdivo groups 30 + 30 mg/kg
Protocol: The concentration of cell lines was adjusted to 1×10^7/ml with the culture medium. 1×10^7/ml of cells were subcutaneously injected into the right armpit of mice, 0.1 ml per mouse.
The model mice were randomly divided into groups, eight for one group, and included test drug group 1, test drug group 2, test drug group 3, test drug group 4, positive drug Opdivo group, single drug chlorogenic acid group, test drug 1+Opdivo group, test drug 2+Opdivo group, test drug 3+Opdivo group, test drug 4+Opdivo group, and negative group, respectively.
Test drug group: from the second day after stopping administration to the model, the group received drug by intraperitoneal injection, once a day, 30 mg/kg.
Single drug group: from the second day after stopping administration to the model, the group received drug by intraperitoneal injection, once a day, 30 mg/kg.
Test drug+Opdivo group: from the second day after stopping administration to the model, the group received the test drug by intraperitoneal injection, once a day, and the test drug was stopped after administrating for 5 consecutive days; on the next day, Opdivo was intraperitoneally injected, once every other day, with the dosage of 30 mg/kg.
Positive drug group: once every other day, 30 mg/kg.
Negative group: normal saline was intraperitoneally injected, once a day, the same amount of saline.
Before each administration, the tumor volume was measured, and the experiment was stopped when the average tumor volume of negative group was greater than 1.5 cm^3.
(§1) After completion of administration, the experiment was stopped, and the mice were killed by cervical dislocation and weighed. The tumor was stripped and weighed, to calculate the tumor inhibition rate.

[4] = tested on: drug-resistant A375 melanoma cell lines; assay: MTT: non-cytotoxic concentration of test drugs, drug-resistant A375; format: cell-based, human; settings: 48 h
Protocol: The culture and treatment methods of cells and drug-resistant cells were the same as above.
For the experiment, there were eight groups: blank group, control group and test-drug groups. […] The plates were placed in an incubator and incubated for 48 h, then 5 mg/ml MTT (20 μl) was added to each well, and the plate was further incubated for 4 h.

[5] = tested on: gemcitabine-resistant Lewis lung cancer; assay: Tumor weight and inhibition rate, transplanted gemcitabine-resistant Lewis lung cancer; format: in vivo; settings: gemcitabine-resistant Lewis lung cancer mice; test drug 30 mg/kg i.p. once a day 5 days, then gemcitabine 300 mg/kg every other day; positive drug gemcitabine 300 mg/kg
Protocol: Lewis lung cancer cell lines were induced by the increased gradient concentration of gemcitabine, and established by clone screening and cultured without drug before the experiment.
After the drug was removed from the drug-resistant cell lines, the cell concentration was adjusted to 1×10^7/ml with the culture medium. 1×10^7/ml of cells were subcutaneously injected into the right armpit of mice, 0.1 ml per mouse.
After the average diameter of tumor reached […], the mice were randomly divided into test drug group 1, test drug group 2, test drug group 3, test drug group 4, test drug group 5, test drug group 6, positive drug group, and negative group, respectively.
Test drug group: the test drug group was first intraperitoneally injected, once a day, 30 mg/kg/time, for 5 consecutive days; administration was stopped, and the positive drug was given by intraperitoneal injection on the next day; wherein the positive drug dacarbazine was administrated once every other day, 60 mg/kg/time; wherein the positive drug gemcitabine was given once every other day, 300 mg/kg/time.
Positive drug group: positive drug dacarbazine was given once every other day, 60 mg/kg/time; positive drug gemcitabine was given once every other day, 300 mg/kg/time.
Negative group: normal saline was intraperitoneally injected, once a day, for 15 consecutive days.
as §1

PD-1/PD-L1 = PD-1/PD-L1 expression rate in tumor tissues of Opdivo-resistant Lewis lung cancer mice; format: in vivo; settings: tumor tissues of drug-resistant (Opdivo) Lewis lung cancer mice
Excerpt: The positive expression rate of PD-1/PD-L1 in tumor tissues was detected by immunohistochemical SP method.

SMILES	Reversal index [1]	reversal effect on the drug-resistant A549 cell lines (in words) [1]	CD4 + T cells (number) [2]	CD8 + T cells (number) [2]	continuous treatment effect / effect on tumor volume control (in words) [3]	Tumor volume (cm^3) [3] [cm^3]	Tumor inhibition rate (%) [3] [%]	Tumor weight [3] [g]	Non-cytotoxic concentration (all inhibition rates <10%) [4] [µg/mL]	Tumor inhibitory rate (%) [5] [%]	Tumor weight (g) [5]	Expression rate of PD-1/PD-L1, Positive PD-L1 (PD-1/PD-L1) [%]
O=C(/C=C/c1ccc(O)c(O)c1)O[C@@H]1C[C@](O)(C(=O)O)C[C@@H](O)[C@H]1O [Chlorogenic acid, chlorogenic acid]	1.13	no significant reversal effect	74.63 ± 6.35	89.42 ± 2.52	not obvious	1.592 ± 0.704	3.18	2.46 ± 0.72	830	10.48	2.05 ± 0.79 ^ g	70.36
O=C(/C=C/c1ccc(O)cc1)O[C@@H]1C[C@](O)(C(=O)O)C[C@@H](O)[C@H]1O [Coumaroylquinic acid, coumaroylquinic acid]	1.10	no significant reversal effect	75.09 ± 5.23	88.26 ± 5.36		1.584 ± 0.424	3.88	2.48 ± 0.55	862	5.68	2.16 ± 0.41 ^ g	71.89
